According to patent US20150225454A1, “TETRABRANCHED PEPTIDES AND ANALOGUES AS A NEW CLASS OF ANTIMICROBIALS AND THEIR PREPARATION THEREOF” (priority 2012, published 2015):
Where a SMILES comes first, the peptide text is derived from it. Bridges are numbered along the chain shown (N, C = ends). Roman numbers before positions name the chains, in order.

Tested on: IOBA-NHC cells
Type: cell-based, human
Details: 24 h
Protocol: IOBA-NHC cells were cultured under standard conditions (humidified atmosphere of 5% CO2 at 37° C.) in DMEM/F12 supplemented with 1 μg/ml bovine pancreas insulin, 2 ng/ml mouse epidermal growth factor, 0.1 μg/ml cholera toxin, […] hydrocortisone, 10% fetal bovine serum (FBS), 50 UI/ml penicillin, and 50 UI/ml streptomycin. Cells from passages 50-80 were used in all experiments. Every day, normal culture development was observed by phase-contrast microscopy. Cells were removed by gentle trypsin incubation at confluence and counted. They were seeded into 96 well culture plates (Corning, Schiphol-Rijk, The Netherlands) for microtitration analysis of flow cytotoxicity assay (˜10,000 cells/well). Cultures were kept at 37° C. for 24 h. Subconfluent cells (culture surface covering nearly 70%) were then exposed to various peptide concentrations (0.22-225 μM). Cytotoxicity was measured periodically using MultiTox-Fluor Multiplex assay kit (Promega, Wis., USA) by measuring the AFC fluorescence (λex=485 and λem=520 nm).

SMILES | EC50
CC(C)[C@H](NC(=O)[C@H](C)NC(=O)[C@H](C)NC(=O)CNC(=O)[C@@H](N)CCCNC(=N)N)C(=O)N[C@H](C(=O)N[C@@H](CCCNC(=N)N)C(=O)N[C@@H](CCCNC(=N)N)C(=O)NCCCC[C@H](NC(=O)[C@H](CCCNC(=N)N)NC(=O)[C@H](CCCNC(=N)N)NC(=O)[C@@H](NC(=O)[C@@H](NC(=O)[C@H](C)NC(=O)[C@H](C)NC(=O)CNC(=O)[C@@H](N)CCCNC(=N)N)C(C)C)C(C)C)C(=O)NCCCC[C@H](NC(=O)[C@H](CCCCNC(=O)[C@H](CCCNC(=N)N)NC(=O)[C@H](CCCNC(=N)N)NC(=O)[C@@H](NC(=O)[C@@H](NC(=O)[C@H](C)NC(=O)[C@H](C)NC(=O)CNC(=O)[C@@H](N)CCCNC(=N)N)C(C)C)C(C)C)NC(=O)[C@H](CCCNC(=N)N)NC(=O)[C@H](CCCNC(=N)N)NC(=O)[C@@H](NC(=O)[C@@H](NC(=O)[C@H](C)NC(=O)[C@H](C)NC(=O)CNC(=O)[C@@H](N)CCCNC(=N)N)C(C)C)C(C)C)C(=O)N[C@@H](CCCCN)C(=O)O)C(C)C [[(SEQ ID NO: 10)2K]2KK] (I: H-RGAAVVRRKKK-OH / II: H-RGAAVVRRK / III: H-RGAAVVRR / IV: H-RGAAVVRR; amide I:9-IV:C, I:10-II:C, II:9-III:C; N-terminus and C-terminus assumed) | 250 µM
CC(C)[C@H](NC(=O)[C@H](CCCCN)NC(=O)[C@H](CCCNC(=N)N)NC(=O)CNC(=O)[C@@H](N)CCCNC(=N)N)C(=O)N[C@H](C(=O)N[C@@H](CCCNC(=N)N)C(=O)N[C@@H](C)C(=O)NCCCC[C@H](NC(=O)[C@H](C)NC(=O)[C@H](CCCNC(=N)N)NC(=O)[C@@H](NC(=O)[C@@H](NC(=O)[C@H](CCCCN)NC(=O)[C@H](CCCNC(=N)N)NC(=O)CNC(=O)[C@@H](N)CCCNC(=N)N)C(C)C)C(C)C)C(=O)NCCCC[C@H](NC(=O)[C@H](CCCCNC(=O)[C@H](C)NC(=O)[C@H](CCCNC(=N)N)NC(=O)[C@@H](NC(=O)[C@@H](NC(=O)[C@H](CCCCN)NC(=O)[C@H](CCCNC(=N)N)NC(=O)CNC(=O)[C@@H](N)CCCNC(=N)N)C(C)C)C(C)C)NC(=O)[C@H](C)NC(=O)[C@H](CCCNC(=N)N)NC(=O)[C@@H](NC(=O)[C@@H](NC(=O)[C@H](CCCCN)NC(=O)[C@H](CCCNC(=N)N)NC(=O)CNC(=O)[C@@H](N)CCCNC(=N)N)C(C)C)C(C)C)C(=O)N[C@@H](CCCCN)C(=O)O)C(C)C [Peptide B4010-R8A] (I: H-RGRKVVRAKKK-OH / II: H-RGRKVVRAK / III: H-RGRKVVRA / IV: H-RGRKVVRA; amide I:9-IV:C, I:10-II:C, II:9-III:C) | > 237 µM
CC(C)[C@H](NC(=O)[C@H](CCCCN)NC(=O)[C@H](CCCNC(=N)N)NC(=O)CNC(=O)[C@@H](N)CCCNC(=N)N)C(=O)N[C@H](C(=O)N[C@@H](C)C(=O)N[C@@H](CCCNC(=N)N)C(=O)NCCCC[C@H](NC(=O)[C@H](CCCNC(=N)N)NC(=O)[C@H](C)NC(=O)[C@@H](NC(=O)[C@@H](NC(=O)[C@H](CCCCN)NC(=O)[C@H](CCCNC(=N)N)NC(=O)CNC(=O)[C@@H](N)CCCNC(=N)N)C(C)C)C(C)C)C(=O)NCCCC[C@H](NC(=O)[C@H](CCCCNC(=O)[C@H](CCCNC(=N)N)NC(=O)[C@H](C)NC(=O)[C@@H](NC(=O)[C@@H](NC(=O)[C@H](CCCCN)NC(=O)[C@H](CCCNC(=N)N)NC(=O)CNC(=O)[C@@H](N)CCCNC(=N)N)C(C)C)C(C)C)NC(=O)[C@H](CCCNC(=N)N)NC(=O)[C@H](C)NC(=O)[C@@H](NC(=O)[C@@H](NC(=O)[C@H](CCCCN)NC(=O)[C@H](CCCNC(=N)N)NC(=O)CNC(=O)[C@@H](N)CCCNC(=N)N)C(C)C)C(C)C)C(=O)N[C@@H](CCCCN)C(=O)O)C(C)C [Peptide B4010-R7A] (I: H-RGRKVVARKKK-OH / II: H-RGRKVVARK / III: H-RGRKVVAR / IV: H-RGRKVVAR; amide I:9-IV:C, I:10-II:C, II:9-III:C) | > 237 µM

Results, then the molecule that gave them:

EC50 | SMILES
46 µM | C[C@H](NC(=O)[C@H](C)NC(=O)[C@H](CCCCN)NC(=O)[C@H](CCCNC(=N)N)NC(=O)CNC(=O)[C@@H](N)CCCNC(=N)N)C(=O)N[C@@H](CCCNC(=N)N)C(=O)N[C@@H](CCCNC(=N)N)C(=O)NCCCC[C@H](NC(=O)[C@H](CCCNC(=N)N)NC(=O)[C@H](CCCNC(=N)N)NC(=O)[C@H](C)NC(=O)[C@H](C)NC(=O)[C@H](CCCCN)NC(=O)[C@H](CCCNC(=N)N)NC(=O)CNC(=O)[C@@H](N)CCCNC(=N)N)C(=O)NCCCC[C@H](NC(=O)[C@H](CCCCNC(=O)[C@H](CCCNC(=N)N)NC(=O)[C@H](CCCNC(=N)N)NC(=O)[C@H](C)NC(=O)[C@H](C)NC(=O)[C@H](CCCCN)NC(=O)[C@H](CCCNC(=N)N)NC(=O)CNC(=O)[C@@H](N)CCCNC(=N)N)NC(=O)[C@H](CCCNC(=N)N)NC(=O)[C@H](CCCNC(=N)N)NC(=O)[C@H](C)NC(=O)[C@H](C)NC(=O)[C@H](CCCCN)NC(=O)[C@H](CCCNC(=N)N)NC(=O)CNC(=O)[C@@H](N)CCCNC(=N)N)C(=O)N[C@@H](CCCCN)C(=O)O [[(SEQ ID NO: 13)2K]2KK] (I: H-RGRKAARRKKK-OH / II: H-RGRKAARRK / III: H-RGRKAARR / IV: H-RGRKAARR; amide I:9-IV:C, I:10-II:C, II:9-III:C; N-terminus and C-terminus assumed)
> 265 µM | C[C@H](NC(=O)CNC(=O)[C@@H](N)CCCNC(=N)N)C(=O)N[C@@H](C)C(=O)N[C@@H](C)C(=O)N[C@@H](C)C(=O)N[C@@H](CCCNC(=N)N)C(=O)N[C@@H](CCCNC(=N)N)C(=O)NCCCC[C@H](NC(=O)[C@H](CCCNC(=N)N)NC(=O)[C@H](CCCNC(=N)N)NC(=O)[C@H](C)NC(=O)[C@H](C)NC(=O)[C@H](C)NC(=O)[C@H](C)NC(=O)CNC(=O)[C@@H](N)CCCNC(=N)N)C(=O)NCCCC[C@H](NC(=O)[C@H](CCCCNC(=O)[C@H](CCCNC(=N)N)NC(=O)[C@H](CCCNC(=N)N)NC(=O)[C@H](C)NC(=O)[C@H](C)NC(=O)[C@H](C)NC(=O)[C@H](C)NC(=O)CNC(=O)[C@@H](N)CCCNC(=N)N)NC(=O)[C@H](CCCNC(=N)N)NC(=O)[C@H](CCCNC(=N)N)NC(=O)[C@H](C)NC(=O)[C@H](C)NC(=O)[C@H](C)NC(=O)[C@H](C)NC(=O)CNC(=O)[C@@H](N)CCCNC(=N)N)C(=O)N[C@@H](CCCCN)C(=O)O [[(SEQ ID NO: 17)2K]2KK] (I: H-RGAAAARRKKK-OH / II: H-RGAAAARRK / III: H-RGAAAARR / IV: H-RGAAAARR; amide I:9-IV:C, I:10-II:C, II:9-III:C; N-terminus and C-terminus assumed)
> 257 µM | CC(C)[C@H](NC(=O)[C@H](C)NC(=O)[C@H](C)NC(=O)[C@H](C)NC(=O)CNC(=O)[C@@H](N)CCCNC(=N)N)C(=O)N[C@@H](CCCNC(=N)N)C(=O)N[C@@H](CCCNC(=N)N)C(=O)NCCCC[C@H](NC(=O)[C@H](CCCNC(=N)N)NC(=O)[C@H](CCCNC(=N)N)NC(=O)[C@@H](NC(=O)[C@H](C)NC(=O)[C@H](C)NC(=O)[C@H](C)NC(=O)CNC(=O)[C@@H](N)CCCNC(=N)N)C(C)C)C(=O)NCCCC[C@H](NC(=O)[C@H](CCCCNC(=O)[C@H](CCCNC(=N)N)NC(=O)[C@H](CCCNC(=N)N)NC(=O)[C@@H](NC(=O)[C@H](C)NC(=O)[C@H](C)NC(=O)[C@H](C)NC(=O)CNC(=O)[C@@H](N)CCCNC(=N)N)C(C)C)NC(=O)[C@H](CCCNC(=N)N)NC(=O)[C@H](CCCNC(=N)N)NC(=O)[C@@H](NC(=O)[C@H](C)NC(=O)[C@H](C)NC(=O)[C@H](C)NC(=O)CNC(=O)[C@@H](N)CCCNC(=N)N)C(C)C)C(=O)N[C@@H](CCCCN)C(=O)O [[(SEQ ID NO: 14)2K]2KK] (I: H-RGAAAVRRKKK-OH / II: H-RGAAAVRRK / III: H-RGAAAVRR / IV: H-RGAAAVRR; amide I:9-IV:C, I:10-II:C, II:9-III:C; N-terminus and C-terminus assumed)
